Measurements from patent publication US7001588B2, “Expanded porphyrin compositions for tumor inhibition” (Cylene Pharmaceuticals, priority 2002, dated 2006).
“Also recorded” adds a separate entry of the source. Read-outs that look alike come from different tables or passages of the source.

Key:
[1] = biological target: c-MYC G-quadruplex (PU27 c-MYC sequence); test: G-quadruplex polymerase stop assay, PU27 c-MYC template; format: biochemical; settings: for EC50: Taq polymerase stop product, PU27 c-MYC template, 55° C., read-out: c-MYC (ED50 μM); for fold selectivity/preference for the c-MYC G-quadruplex over the human telomeric G-quadruplex: from ED50 values
[2] = biological target: human telomeric G-quadruplex; test: G-quadruplex polymerase stop assay, human telomeric template; format: biochemical; settings: for EC50: Taq polymerase stop product, four TTAGGG repeats template, 37° C., read-out: Huam Telomeric (ED50 μM)
Duplex DNA = test: Polymerase stop assay, pausing at primer position (duplex product); format: biochemical; settings: for Duplex DNA (ED30 μM): normalized percentage of duplex product; for Duplex DNA ED30, fold in parentheses (relative to c-MYC ED50): value in parentheses (×)
Method: These were synthesized and purified as described above. Labeled primer (100 nM) and template DNA (100 nM) were annealed in an annealing buffer (50 mM Tris-HCl, pH 7.5, 10 mM NaCl) by heating to 95° C. and then slowly cooled to room temperature. […] KCl and NaCl (10 mM each) were added to the reaction. Taq DNA polymerase was added, and the mixture was incubated at 55° C. for 20 min.
Pausing at the G-quadruplex forming site is quantified as the normalized percentage of stop product with respect to the total intensity per lane. […] This is quantified as the normalized percentage of duplex product with respect to the total intensity per lane.

HeLa S3 cells = test: In vitro cytotoxicity assay (CellTiter 96 MTS); format: cell-based, human
Method: HeLa S3 (human cervical carcinoma metastasis were obtained from ATCC, and were cultured in Dulbecco's modification of Eagle's Medium (DMEM, Cellgro) with 10% FBS, 50 U/ml penicillin G sodium, 50 U/ml streptomycin sulfate. Adherent cells were grown to 80% confluency and passaged at 1:10 in the following fashion. The medium was aspirated by vacuum, and the cells were washed with 1×PBS (Cellgro). Sufficient trypsin (Gibco/BRL) was added to cover the cells, and cells were incubated at room temperature for approximately 3 min, or until cells detached from the flask with firm tapping. The trypsin was neutralized with an equal volume of culture medium, and the cells were counted using a haemocytometer and passaged at 1:10 into fresh medium. […]
In vitro cytotoxicity assays were performed using the CellTiter 96 Non-Radioactive Cell Proliferation Assay (Promega Corp., Madison, Wis.). […] Absorbance was measured using a Wallac Victor Multilabel Counter (Perkin Elmer, Shelton, Conn.) at 490 nm. Data were expressed as the percentage of survival of control calculated from the absorbance corrected for background absorbance. The surviving fraction of cells was determined by dividing the mean absorbance values of the test agents by the mean absorbance values of untreated control.

c-MYC G-quadruplex = test: Photomediated strand cleavage reaction
[3] = system: c-MYC expression in HeLa S3 cells; test: Effect on c-MYC transcription (real-time PCR, normalized to β-actin); format: cell-based, human; settings: at high (100 μM) concentration, 24 h

EC50 [1] [µM]	fold selectivity/preference for the c-MYC G-quadruplex over the human telomeric G-quadruplex [1]	concentration giving complete arrest of the polymerase synthesis at the G-quadruplex forming site ([1]; template containing c-MYC sequence, FIG. 5A) [µM]	interaction with the human telomeric G-quadruplex structure (ED50 can't be calculated) [2]	pausing in the polymerase synthesis at the G-quadruplex forming site ([2]; at 20 μM, template containing human telomeric sequence, FIG. 5B)	Molecule	EC50 [2] [µM]	duplex (or single strand) DNA binding, in words (Duplex DNA)	Duplex DNA (ED30 μM) (Duplex DNA)	Duplex DNA ED30, fold in parentheses (relative to c-MYC ED50) (Duplex DNA)	EC50 (HeLa S3 cells; HeLa S3, 4 days, MTS, FIG. 8, read-out: cytotoxicity ED50) [µM]	photoinduced cleavage of c-MYC G-quadruplex (c-MYC G-quadruplex; at 1 μM, FIG. 6 lane 2)	EC50 (HeLa S3 cells) [µM]	inhibitory effect on c-MYC expression [3]	photoinduced cleavage of c-MYC G-quadruplex / photoactivity (c-MYC G-quadruplex; compared to TMPyP4, FIG. 7)
2.34	8 fold				C[n+]1cccc(-c2c3nc(c(-c4ccc[n+](C)c4)c4ccc([nH]4)c(-c4ccc[n+](C)c4)c4nc(c(-c5ccc[n+](C)c5)c5ccc2[nH]5)C=C4)C=C3)c1 [TMPyP3]	19.5		>50 (>50) μM	>50 (>50)			43.4		
0.025	greater than 1,000 fold	0.04	only very little interaction	little pausing	5,10,15,20-tetra(N-methyl-3-pyridyl)-26,28-diselena sapphyrin chloride [Se2SAP]		little or no duplex binding activity; also recorded: absence of duplex binding						comparable to TMPyP4; also recorded: same as that of TMPyP4	minimal cleavage; also recorded: not photoactive

Molecule	EC50 [1] [µM]	fold selectivity/preference for the c-MYC G-quadruplex over the human telomeric G-quadruplex [1]	concentration giving complete arrest of the polymerase synthesis at the G-quadruplex forming site ([1]; template containing c-MYC sequence, FIG. 5A) [µM]	interaction with the human telomeric G-quadruplex structure (ED50 can't be calculated) [2]	pausing in the polymerase synthesis at the G-quadruplex forming site ([2]; at 20 μM, template containing human telomeric sequence, FIG. 5B)	EC50 [2] [µM]	duplex (or single strand) DNA binding, in words (Duplex DNA)	Duplex DNA (ED30 μM) (Duplex DNA)	Duplex DNA ED30, fold in parentheses (relative to c-MYC ED50) (Duplex DNA)	EC50 (HeLa S3 cells; HeLa S3, 4 days, MTS, FIG. 8, read-out: cytotoxicity ED50) [µM]	photoinduced cleavage of c-MYC G-quadruplex (c-MYC G-quadruplex; at 1 μM, FIG. 6 lane 2)	EC50 (HeLa S3 cells) [µM]	inhibitory effect on c-MYC expression [3]	photoinduced cleavage of c-MYC G-quadruplex / photoactivity (c-MYC G-quadruplex; compared to TMPyP4, FIG. 7)
C[n+]1ccc(-c2c3nc(c(-c4cc[n+](C)cc4)c4ccc([nH]4)c(-c4cc[n+](C)cc4)c4ccc([nH]4)c(-c4cc[n+](C)cc4)c4nc2C=C4)C=C3)cc1 [TMPyP4]	0.99	19 fold				18.9	little or no duplex binding activity	>50 (>50) μM	>50 (>50)	25.6	considerable cleavage pattern			
